Columns and labels:
[1] = system: panel of 26 human serine or threonine proteases; assay: Protease selectivity panel as a whole (26 Ser/Thr proteases); assay type: biochemical; conditions: 100 μM; the 3 proteases inhibited by more than 50%
Description: (§1) Test compounds were dissolved in 100% DMSO to make 10 mM stock. Final compound concentration in assay is […]. Compounds were tested in duplicate wells at single concentration and the final concentration of DMSO in all assays was kept at 1%. Five reference compounds, AEBSF, Carfilzomib, Granzyme B Inhibitor II, Dec-RVKR-CMK, and Teneligliptin hydrobromide, were tested in an identical manner with 8 concentration points at 5× dilutions.

[2] = system: panel of 26 human serine or threonine proteases; assay: Protease selectivity panel, summary over the panel; assay type: biochemical; conditions: 100 μM compound
Description: as §1

[3] = system: Myzus persicae (Green peach aphid); assay: Efficacy of chlorpyrifos-ethyl with boronic acids on aphids on broad bean leaves; assay type: in vivo; conditions: for Percentage of efficacy: boronic acid where present 0.2 mg/ml
Description: Experimentations was carried out in BIOtransfer, France under controlled conditions.
Bean leaves were treated with chlorpyrifos 480 EC (480 g a.i./1) at 4 application rates (360, 180, 90, 45 g a.i./ha), used alone or in combination with 3 boronic acid (BA) derivates (3.10, 5 and 3.7) each at 0.2 mg/ml. The treatment was performed with an agricultural nozzle (300 L per hectare) […]. A non-treated control condition were also evaluated in parallel. Statistical analysis of the data was then performed. When the leaves were totally dry, 3 leaves were sampled and infested with 3 wingless adults of M. persicae per leaf fragment.
• T+1 (DAT 1)—One day later the number of adults remaining on the leaves was counted. • T+3 (DAT 3)—3 days after treatment the aphid population was estimated; • T+7 (DAT 7)—7 days after treatment the development of aphid population was estimated.
3 bean leaves fragments per microbox*4 microbox per condition (1 condition is 1 formulation at 1 dose)*9 adult aphids per microbox*4 insecticides (3 chlorpyrifos derivates+clorpyrifos alone)*4 rates+2 controls (1 reference insecticide formulation at one dose and non-treated)*3 assessments timings (DAT+1, DAT+3 and DAT+7).

[4] = Observation of the spray mixtures (flocculation); assay type: physicochemical; conditions: alone and in mixture with CPE in all doses

OB(O)c1cc(Br)cc(N2CCCC2)c1 [Compound 3]
residual activity of the inhibited proteases [1]: at least 30% | inhibition across the panel of 26 human proteases (in words) [2]: only 3 of the 26 proteases were inhibited by more than 50%

CCOP(=S)(OCC)Oc1nc(Cl)c(Cl)cc1Cl [CPE, Chlorpyrifos-ethyl]
Percentage of efficacy ([3]; CPE 0.7, 1 DAT): 38% | Percentage of efficacy ([3]; CPE 0.7, 3 DAT): 20% | Percentage of efficacy ([3]; CPE 0.7, 7 DAT): 25% | Percentage of efficacy ([3]; CPE 1.4, 1 DAT): 41% | Percentage of efficacy ([3]; CPE 1.4, 3 DAT): 27% | Percentage of efficacy ([3]; CPE 1.4, 7 DAT): 25% | Percentage of efficacy ([3]; CPE 2.8, 1 DAT): 32% | Percentage of efficacy ([3]; CPE 2.8, 3 DAT): 26% | Percentage of efficacy ([3]; CPE 2.8, 7 DAT): 23% | Percentage of efficacy ([3]; CPE 5.6, 1 DAT): 36% | Percentage of efficacy ([3]; CPE 5.6, 3 DAT): 48% | Percentage of efficacy ([3]; CPE 5.6, 7 DAT): 67% | Calibration results (efficacy) ([3]; CPE 1.4, 1 DAT): 33% | Calibration results (efficacy) ([3]; CPE 1.4, 3 DAT): 51% | Calibration results (efficacy) ([3]; CPE 1.4, 7 DAT): 51% | Calibration results (efficacy) ([3]; CPE 2.8, 1 DAT): 31% | Calibration results (efficacy) ([3]; CPE 2.8, 3 DAT): 79% | Calibration results (efficacy) ([3]; CPE 2.8, 7 DAT): 99% | Calibration results (efficacy) ([3]; CPE 5.6, 1 DAT): 67% | Calibration results (efficacy) ([3]; CPE 5.6, 3 DAT): 98% | Calibration results (efficacy) ([3]; CPE 5.6, 7 DAT): 100%

OB(O)c1ccc(OCc2ccccc2F)c(Cl)c1 [Compound 5, 3-Chloro-4(2′-fluorobenzyloxy) phenylboronic acid]
flocculation [4]: Flocculation is observed

— patent US20190327974A1, “SYNERGISTS FOR IMPROVED PESTICIDES” (priority 2017, published 2019)
